Test results published in patent publication EP4582426A1, “PAN-KRAS INHIBITOR COMPOUND” (Adlai Nortye Biopharma Co., Ltd., priority 2022, dated 2024).

How the values were obtained:
SW480 (G12V) = assay: In vitro cell proliferation inhibition test (CellTiter-Glo Luminescent Cell Viability Assay); format: cell-based; conditions: SW480 cell line, Large intestine, Colon, KRAS (p.G12V), cells and compounds co-incubated 72 hours
Description: (§1) Due to the diversity of RAS mutations and in order to evaluate the activity of compounds in different RAS mutant cell lines, we selected KRAS^WT, KRAS^G12C, KRAS^G12D), KRAS^G12V and BRAF mutant cell lines (see the table below) for in vitro activity evaluation and screening of compounds .
(§2) Experimental protocol: CellTiter-Glo® Cell Luminescent Viability Assay (Promega)
(§3) According to the doubling time of different cell lines, different numbers of cells (1000-5000 cells/well) were inoculated into 96-well plates containing 180 µl of the corresponding medium, and cultured overnight in a 37°C cell incubator containing 5% CO2. On the second day, the compound to be tested was pre-diluted 3-fold with the medium, the highest concentration was 100 µM, and there were 10 concentration gradients in total; then 20 µl of the medium containing different concentrations of the compound was added to the cells in the 96-well plate to ensure the final concentration of the compound to be up to 10 µM, with 10 concentration gradients of 3-fold dilutions. After co-incubating cells and compounds for 72 hours, the 96-well plate was taken out of the incubator, placed at room temperature for 30 minutes, and then 25 µl CellTiter-Glo® Reagent was added to each well to mix well, and incubated at room temperature for 10 minutes, and then 100 µl of the sample was transferred to a white 96-well plate (OptiPlateTM-96, PerkinElmer), the […] signal value was read using a multi-functional microplate reader (SpectraMax® i3x, Molecular devices). Subsequently, the signal value was standardized, and the four-parameter fitting regression equation was used for curve fitting to calculate the half maximal inhibitory concentration (IC50) of the compound on the cell line. Table 3: Antiproliferative activity of compounds of the present invention on KRAS cell mutants

AsPC-1 (G12D) = assay: as above; format: cell-based; conditions: AsPC-1 cell line, Pancreas, KRAS (p.G12D), cells and compounds co-incubated 72 hours
Description: as §1, §2, §3

Row | Compound | IC50 (SW480 (G12V)) | IC50 (AsPC-1 (G12D)) | also measured
1 | (1S,2S)-N-((63S,4S,Z)-1^1-ethyl-1^2-(2-((S)-1-methoxyethyl)-5-((1-methylpiperidin-4-yl)ethynyl)pyridin-3-yl)-10,10-dimethyl-5,7-dioxo-6^1,6^2,6^3,6^4,6^5,6^6-hexahydro-1^1H-8-oxa-2(4,2)-thiazola-1(5,3)-indola-6(1,3)-pyridazinacycloundecaphane-4-yl)-2-methylcyclopropane-1-carboxamide [Example 29] | 2.8 nM | 1.2 nM | 
2 | (1r,2R,3S)-N-((6^3S,4S,Z)-1^1-ethyl-1^2-(5-(3-((R)-3-(hydroxymethyl)morpholino)prop-1-yn-1-yl)-2-((S)-1-methoxyethyl)pyridin-3-yl)-10,10-dimethyl-5,7-dioxo-6^1,6^2,6^3,6^4,6^5,6^6-hexahydro-1^1H-8-oxa-2(4,2)-thiazola-1(5,3)-indola-6(1,3)-pyridazinacycloundecaphane-4-yl)-2,3-dimethylcyclopropane-1-carboxamide [Example 38] | 0.18 nM | 0.07 nM | 
3 | (1S,2S)-N-((6^3S,4S,Z)-1^1-ethyl-1^2-(2-((S)-1-methoxyethyl)-5-(((S)-4-methyl-1,1-dioxidothiomorpholin-2-yl)ethynyl)pyridin-3-yl)-10,10-dimethyl-5,7-dioxo-6^1,6^2,6^3,6^4,6^5,6^6-hexahydro-1^1H-8-oxa-2(4,2)-thiazola-1(5,3)-indola-6(1,3)-pyridazinacycloundecaphane-4-yl)-2-methylcyclopropane-1-carboxamide [Example 45] | 7.4 nM | 5.3 nM | 
4 | CCn1c(-c2cc(C#CC3CN(C)C3)cnc2C(C)OC)c2c3cc(ccc31)-c1csc(n1)CC(NC(=O)C1CC1C)C(=O)N1CCCC(N1)C(=O)OCC(C)(C)C2 [Example 12, (1S,2S)-N-((63S,4S,Z)-11-ethyl-12-(2-((S)-1-methoxyethyl)-5-((1-methylazetidin-3-yl)ethynyl)pyridin-3-yl)-10,10-dimethyl-5,7-dioxo-61,62,63,64,65,66-hexahydro-11H-8-oxa-2(4,2)-thiazola-1(5,3)-indola-6(1,3)-pyridazinacyclonecaphane-4-yl)-2-methylcyclopropane-1-carboxamide] | 33.9 nM | 11.8 nM | IC50 (SW480 (G12V); listed as 12'): 1790 nM; IC50 (AsPC-1 (G12D); listed as 12'): 443 nM
5 | CCn1c(-c2cc(C#CCCN3CCOCC3)cnc2[C@H](C)OC)c2c3cc(ccc31)-c1csc(n1)C[C@H](NC(=O)[C@H]1C[C@@H]1C)C(=O)N1CCC[C@H](N1)C(=O)OCC(C)(C)C2 (single isomer, unassigned) [Example 5] | 24.6 nM | 3220 nM | IC50 (SW480 (G12V); listed as 5'): 2020 nM
6 | CCn1c(-c2cc(C#CCN3CCP(C)(=O)CC3)cnc2[C@H](C)OC)c2c3cc(ccc31)-c1csc(n1)C[C@H](NC(=O)[C@H]1C[C@@H]1C)C(=O)N1CCC[C@H](N1)C(=O)OCC(C)(C)C2 [Example 49, (1S,2S)-N-((6^3S,4S,Z)-1^1-ethyl-1^2-(2-((S)-1-methoxyethyl)-5-(3-(4-methyl-4-oxido-1,4-azaphosphinan-1-yl)prop-1-yn-1-yl)pyridin-3-yl)-10,10-dimethyl-5,7-dioxo-6^1,6^2,6^3,6^4,6^5,6^6-hexahydro-1^1H-8-oxa-2(4,2)-thiazola-1(5,3)-indola-6(1,3)-pyridazinacycloundecaphane-4-yl)-2-methylcyclopropane-1-carboxamide] | 9.2 nM | 7.5 nM | 
7 | CCn1c(-c2cc(C#Cc3cnc4c(c3)CN(C)C4)cnc2[C@H](C)OC)c2c3cc(ccc31)-c1csc(n1)C[C@H](NC(=O)[C@H]1C[C@@H]1C)C(=O)N1CCC[C@H](N1)C(=O)OCC(C)(C)C2 [Example 46, (1S,2S)-N-((6^3S,4S,Z)-1^1-ethyl-1^2-(2-((S)-1-methoxyethyl)-5-((6-methyl-6,7-dihydro-5H-pyrrolo[3,4-b]pyridin-3-yl)ethynyl)pyridin-3-yl)-10,10-dimethyl-5,7-dioxo-6^1,6^2,6^3,6^4,6^5,6^6-hexahydro-1^1H-8-oxa-2(4,2)-thiazola-1(5,3)-indola-6(1,3)-pyridazinacycloundecaphane-4-yl)-2-methylcyclopropane-1-carboxamide] | 11.4 nM | 19.5 nM | 
8 | CCn1c(-c2cc(C#C[C@@H]3COCCN3C)cnc2[C@H](C)OC)c2c3cc(ccc31)-c1csc(n1)C[C@H](NC(=O)[C@H]1C[C@@H]1C)C(=O)N1CCC[C@H](N1)C(=O)OCC(C)(C)C2 [Example 7, (1S,2S)-N-((63S,4S,Z)-11-ethyl-12-(2-((S)-1-methoxyethyl)-5-(((R)-4-methylmorpholin-3-yl)ethynyl)pyridin-3-yl)-10,10-dimethyl-5,7-dioxo-61,62,63,64,65,66-hexahydro-11H-8-oxa-2(4,2)-Thiazola-1(5,3)-indola-6(1,3)-pyridazinacyclonecaphane-4-yl)-2-methylcyclopropane-1-carboxamide] | 4.6 nM | 5.1 nM | IC50 (SW480 (G12V); listed as 7'): 830 nM; IC50 (AsPC-1 (G12D); listed as 7'): 2640 nM

Second part, led by results:

Row | IC50 (SW480 (G12V)) | IC50 (AsPC-1 (G12D)) | Compound | also measured
9 | 0.3 nM | 0.24 nM | CCn1c(-c2cc(C#CCN3CCN(C)CC3)cnc2[C@H](C)OC)c2c3cc(ccc31)-c1csc(n1)C[C@H](NC(=O)[C@H]1[C@H](C)[C@@H]1C)C(=O)N1CCC[C@H](N1)C(=O)OCC(C)(C)C2 [Example 52, (1r,2R,3S)-N-((6^3S,4S,Z)-1^1-ethyl-1^2-(2-((S)-1-methoxyethyl)-5-(3-(4-methylpiperazin-1-yl)prop-1-yn-1-yl)pyridin-3-yl)-10,10-dimethyl-5,7-dioxo-6^1,6^2,6^3,6^4,6^5,6^6-hexahydro-1^1H-8-oxa-2(4,2)-thiazola-1(5,3)-indola-6(1,3)-pyridazinacycloundecaphane-4-yl)-2,3-dimethylcyclopropane-1-carboxamide] | 
10 | 7590 nM | 5.7 nM | CCn1c(-c2cc(C#C[C@@H]3CCN3C)cnc2[C@H](C)OC)c2c3cc(ccc31)-c1csc(n1)C[C@H](NC(=O)[C@H]1C[C@@H]1C)C(=O)N1CCC[C@H](N1)C(=O)OCC(C)(C)C2 [Example 13, (1S,2S)-N-((63S,4S,Z)-11-ethyl-12-(2-((S)-1-methoxyethyl)-5-(((S)-1-methylazetidin-2-yl)ethynyl)pyridin-3-yl)-10,10-dimethyl-5,7-dioxo-61,62,63,64,65,66-hexahydro-11H-8-oxa-2(4,2)-Thiazola-1(5,3)-indola-6(1,3)-pyridazinacyclonecaphane-4-yl)-2-methylcyclopropane-1-carboxamide] | IC50 (AsPC-1 (G12D); listed as 13'): 2820 nM
11 | 5.4 nM | 4.5 nM | CCn1c(-c2cc(C#CC3CN(C)CCS3(=N)=O)cnc2C(C)OC)c2c3cc(ccc31)-c1csc(n1)CC(NC(=O)C1CC1C)C(=O)N1CCCC(N1)C(=O)OCC(C)(C)C2 [Example 51, (1S,2S)-N-((6^3S,4S,Z)-1^1-ethyl-1^2-(5-(((2S)-1-imino-4-methyl-1-oxido-1λ^6-thiomorpholin-2-yl)ethynyl)-2-((S)-1-methoxyethyl)pyridin-3-yl)-10,10-dimethyl-5,7-dioxo-6^1,6^2,6^3,6^4,6^5,6^6-hexahydro-1^1H-8-oxa-2(4,2)-thiazola-1(5,3)-indola-6(1,3)-pyridazinacycloundecaphane-4-yl)-2-methylcyclopropane-1-carboxamide] | 
12 | 1.76 nM | 0.96 nM | CCn1c(-c2cc(C#CCN3CCCCC3)cnc2[C@H](C)OC)c2c3cc(ccc31)-c1csc(n1)C[C@H](NC(=O)[C@H]1C[C@@H]1C)C(=O)N1CCC[C@H](N1)C(=O)OCC(C)(C)C2 [Example 59, (1S,2S)-N-((6^3S,4S,Z)-1^1-ethyl-1^2-(2-((S)-1-methoxyethyl)-5-(3-(piperidin-1-yl)prop-1-yn-1-yl)pyridin-3-yl)-10,10-dimethyl-5,7-dioxo-6^1,6^2,6^3,6^4,6^5,6^6-hexahydro-1^1H-8-oxa-2(4,2)-thiazola-1(5,3)-indola-6(1,3)-pyridazinacycloundecaphane-4-yl)-2-methylcyclopropane-1-carboxamide] | 
13 | 23.3 nM | 3 nM | CCn1c(-c2cc(C#CC3CCN(CCO)CC3)cnc2C(C)OC)c2c3cc(ccc31)-c1csc(n1)CC(NC(=O)C1CC1C)C(=O)N1CCCC(N1)C(=O)OCC(C)(C)C2 [Example 55, (1S,2S)-N-((6^3S,4S,Z)-1^1-ethyl-1^2-(5-((1-(2-hydroxyethyl)piperidin-4-yl)ethynyl)-2-((S)-1-methoxyethyl)pyridin-3-yl)-10,10-dimethyl-5,7-dioxo-6^1,6^2,6^3,6^4,6^5,6^6-hexahydro-1^1H-8-oxa-2(4,2)-thiazola-1(5,3)-indola-6(1,3)-pyridazinacycloundecaphane-4-yl)-2-methylcyclopropane-1-carboxamide] | 
